Experimental data reported in the NIST ThermoML archive (doi:10.1021/je0498208).
± gives the expanded uncertainty stated by the source.

How the values were obtained:
[1] = Liquid; for viscosity: 101 kPa; for mass density: 101.3 kPa
[2] = xn = mol fraction of the nth substance listed; details: Liquid, x2 = 0; for viscosity: 101 kPa; for mass density: 101.3 kPa

| viscosity ([1]; 298.15 K) | viscosity ([1]; 303.15 K) | viscosity ([1]; 313.15 K) | viscosity ([1]; 323.15 K) | mass density ([1]; 323.15 K) | viscosity ([1]; 333.15 K) | mass density ([1]; 333.15 K) | viscosity ([1]; 343.15 K) | mass density ([1]; 343.15 K) | other results | SMILES |
| --- | --- | --- | --- | --- | --- | --- | --- | --- | --- | --- |
| 7.87 ± 0.22 mPa·s | 6.75 ± 0.2 mPa·s | 5.13 ± 0.15 mPa·s | 4.03 ± 0.12 mPa·s | 1124.82 ± 1.2 kg/m3 | 3.25 ± 0.1 mPa·s | 1116.11 ± 1.1 kg/m3 | 2.68 ± 0.08 mPa·s | 1107.39 ± 1.1 kg/m3 | mass density ([1]; 298.15 K): 1146.62 ± 1.2 kg/m3; mass density ([1]; 303.15 K): 1142.26 ± 1.2 kg/m3; mass density ([1]; 313.15 K): 1133.53 ± 1.2 kg/m3 | O=CN1CCOCC1 [N-formylmorpholine] |
|  |  |  |  |  |  |  |  |  | viscosity ([2]; 298.15 K): 0.89 ± 0.027 mPa·s; viscosity ([2]; 303.15 K): 0.7976 ± 0.025 mPa·s; viscosity ([2]; 313.15 K): 0.6531 ± 0.02 mPa·s; viscosity ([2]; 323.15 K): 0.547 ± 0.017 mPa·s; mass density ([2]; 323.15 K): 988.04 ± 0.13 kg/m3; viscosity ([2]; 333.15 K): 0.466 ± 0.015 mPa·s; mass density ([2]; 333.15 K): 983.12 ± 0.13 kg/m3; viscosity ([2]; 343.15 K): 0.4049 ± 0.013 mPa·s; mass density ([2]; 343.15 K): 977.77 ± 0.13 kg/m3 | O [water] + O=CN1CCOCC1 |
| 0.89 ± 0.027 mPa·s | 0.7976 ± 0.025 mPa·s | 0.6531 ± 0.02 mPa·s | 0.547 ± 0.017 mPa·s | 988.04 ± 0.13 kg/m3 | 0.466 ± 0.015 mPa·s | 983.12 ± 0.13 kg/m3 | 0.4049 ± 0.013 mPa·s | 977.77 ± 0.13 kg/m3 |  | O [water] |
